Experiment [1] deals with T1, recombinant human LTA4 hydrolase (rhLTA4H) (Homo sapiens, UniProt P09960).
T1 construct: made in house; host or cells: Spodoptera frugiperda (Sf-9) cells, baculovirus (pFastBac1)
T1 sequence (P09960 1-611): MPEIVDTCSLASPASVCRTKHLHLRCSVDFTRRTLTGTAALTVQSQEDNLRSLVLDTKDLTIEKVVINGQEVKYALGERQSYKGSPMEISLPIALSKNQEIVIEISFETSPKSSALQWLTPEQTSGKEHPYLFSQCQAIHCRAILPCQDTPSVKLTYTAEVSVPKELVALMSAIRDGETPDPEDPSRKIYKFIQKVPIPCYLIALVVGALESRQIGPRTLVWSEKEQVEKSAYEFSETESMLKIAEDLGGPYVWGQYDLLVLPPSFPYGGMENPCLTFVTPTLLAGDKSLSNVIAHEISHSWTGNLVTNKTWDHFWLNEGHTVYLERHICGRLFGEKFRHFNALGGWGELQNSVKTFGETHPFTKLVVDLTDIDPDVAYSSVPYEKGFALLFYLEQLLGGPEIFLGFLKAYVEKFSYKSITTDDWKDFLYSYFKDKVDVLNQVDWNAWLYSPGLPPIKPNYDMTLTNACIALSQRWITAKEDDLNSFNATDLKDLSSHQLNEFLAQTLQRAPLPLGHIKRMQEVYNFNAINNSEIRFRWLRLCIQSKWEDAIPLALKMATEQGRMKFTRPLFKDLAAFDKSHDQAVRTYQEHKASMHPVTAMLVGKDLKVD
Briefly: Recombinant human LTA4 hydrolase assay for LTA4 hydrolase inhibitor activity. Type of experiment: biochemical. Conditions: rhLTA4H, LTB4 by immunoassay; single determination or average of two or more; mark after value = form tested: ′ free base, ″ hydrochloride, ^ formate; read-out: IC50. Put shortly:
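Baculovirus/Sf-9-expressed human LTA4H (10 ng) was preincubated 10 min at rt with compound in assay buffer (10% DMSO in compound dilution), then reacted 30 min at rt with LTA4 free acid made from its methyl ester. LTB4 produced was measured by ELISA after dilution; IC50 from non-linear regression, single or averaged determinations.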

Experiment [2] has as its system LTB4 production in murine blood (LTA4H). Briefly: LTB4 production by calcium ionophore-stimulated murine blood for LTA4H inhibitor activity. Conditions: Mus musculus; murine blood diluted 1 in 15, A23187 stimulated; single determination or average; mark after value = form tested: ′ free base, ″ hydrochloride, ^ formate; read-out: IC50. The format is cell-based, CD-1 mice. The gist of the method: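 Heparinized blood from CD-1 mice was preincubated with compound for 15 min at 37° C, then stimulated with calcium ionophore A23187 (final 7 μg/mL) for 30 min. Centrifugation stopped the reaction, and LTB4 in the supernatant was measured by enzyme immunoassay. Values are single determinations or means of two or more.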

Counter-ions that a name gives are not always drawn.

In the case of `CC(=O)NC1CCN(Cc2coc3cc(Oc4nc5ccccc5s4)ccc23)CC1` [Example 180, N-{1-[6-(Benzothiazol-2-yloxy)-benzofuran-3-ylmethyl]-piperidin-4-yl}-acetamide], the IC50 was found to be 21 nM in experiment [1] and 38 nM in experiment [2].
For the compound `CC(C)N(C)C(=O)c1coc2cc(Oc3nc4ncccc4s3)ccc12` [Example 373, 6-(Thiazolo[4,5-b]pyridin-2-yloxy)-benzofuran-3-carboxylic acid isopropyl-methyl-amide], the IC50 was found to be 34 nM in experiment [1] and 100 nM in experiment [2].
In the case of `CC(=O)NC1CCN(Cc2c[nH]c3cc(Oc4nc5ccccc5s4)ccc23)CC1` [Example 53, N-{1-[6-(Benzothiazol-2-yloxy)-1H-indol-3-ylmethyl]-piperidin-4-yl}-acetamide], the figures for the IC50 in experiment [1] and in experiment [2] were 8 nM and 204 nM, respectively.
Taken in the same sequence, the figures for `c1cnc2nc(Oc3ccc4c(CN5CCCCC5)coc4c3)sc2c1` [Example 212, 2-(3-Piperidin-1-ylmethyl-benzofuran-6-yloxy)-thiazolo[4,5-b]pyridine] were 4 nM and 19 nM.
In the case of `c1ccc(C2CCN(Cc3coc4cc(Oc5nc6ncccc6s5)ccc34)CC2)cc1` [Example 280, 2-[3-(4-Phenyl-piperidin-1-ylmethyl)-benzofuran-6-yloxy]-thiazolo[4,5-b]pyridine formate], the IC50 in experiment [1] worked out at 10 nM; in experiment [2] it was 130 nM.
Consider `OC1(c2ccc(Br)cc2)CCN(Cc2coc3cc(Oc4nc5ncccc5s4)ccc23)CC1` [Example 348, 4-(4-Bromo-phenyl)-1-[6-(thiazolo[4,5-b]pyridin-2-yloxy)-benzofuran-3-ylmethyl]-piperidin-4-ol], for which the IC50 was found to be 67 nM in experiment [1] and 360 nM in experiment [2].
As to `NC(=O)N[C@@H]1C[C@H]2CC[C@@H](C1)N2Cc1coc2cc(Oc3nc4ncccc4s3)ccc12` [Example 207, meso-exo-{8-[6-(Thiazolo[4,5-b]pyridin-2-yloxy)-benzofuran-3-ylmethyl]-8-aza-bicyclo[3.2.1]oct-3-yl}-urea], the IC50 was 1 nM in experiment [1] and 160 nM in experiment [2].
For `O=C(C1CC1)N1CCN(Cc2coc3cc(Oc4nc5ncccc5s4)ccc23)CC1` [Example 276, Cyclopropyl-{4-[6-(thiazolo[4,5-b]pyridin-2-yloxy)-benzofuran-3-ylmethyl]-piperazin-1-yl}-methanone formate], the IC50 in experiment [1] amounted to 3 nM; in experiment [2] it was 77 nM.
As for `CC(=O)N[C@H]1C[C@H]2CC[C@@H](C1)N2Cc1cc2cc(Oc3nc4ccccc4s3)ccc2o1` [Example 83, meso-endo-N-{8-[5-(Benzothiazol-2-yloxy)-benzofuran-2-ylmethyl]-8-aza-bicyclo[3.2.1]oct-3-yl}-acetamide formate], the IC50 in experiment [1] is 70 nM; in experiment [2], 119 nM.
Turning to `c1ccc2sc(Oc3ccc4c(CN5C[C@@H]6C[C@H]5CN6)c[nH]c4c3)nc2c1` [Example 52, (1S,4S)-2-[3-(2,5-Diaza-bicyclo[2.2.1]hept-2-ylmethyl)-1H-indol-6-yloxy]-benzothiazole 2HCl], the IC50 came to 23 nM in experiment [1] and 411 nM in experiment [2].
Consider `F[C@@H]1CCN(Cc2coc3cc(Oc4nc5ncccc5s4)ccc23)C1` [Example 328, (R)-2-[3-(3-Fluoro-pyrrolidin-1-ylmethyl)-benzofuran-6-yloxy]-thiazolo[4,5-b]pyridine], for which the results for the IC50 in experiment [1] and in experiment [2] were 12 nM and 93 nM, respectively.
`OC[C@@H]1CCCN1Cc1coc2cc(Oc3nc4ccccc4s3)ccc12` [Example 312, (S)-{1-[6-(Benzothiazol-2-yloxy)-benzofuran-3-ylmethyl]-pyrrolidin-2-yl}-methanol]: the IC50 in experiment [1] was found to be 22 nM; in experiment [2] it was 160 nM.
Taken in the same sequence, the figures for `O=C(CO)N1CC2CN(Cc3coc4cc(Oc5nc6ncccc6s5)ccc34)CC2C1` (centres unmarked) [Example 355, 2-Hydroxy-1-{5-[6-(thiazolo[4,5-b]pyridin-2-yloxy)-benzofuran-3-ylmethyl]-hexahydro-pyrrolo[3,4-c]pyrrol-2-yl}-ethanone] were 3 nM and 68 nM.

The record behind these values is patent US8399465B2, “Compounds with two fused bicyclic heteroaryl moieties as modulators of leukotriene A4 hydrolase” (Janssen Pharmaceutica NV, priority 2009, dated 2013).
